According to ChEMBL document CHEMBL5331060, “Bisindole natural products: A vital source for the development of new anticancer drugs” (Eur J Med Chem, 2022):

How the values were obtained:
[1] = test system: MCF7; assay: Antiproliferative activity against human MCF7 cells assessed as inhibition of cell growth incubated for 72 hrs by SRB assay; assay type: functional, cell-based; conditions: MCF7, 72 h
[2] = test system: A549; assay: Antiproliferative activity against human A549 cells assessed as inhibition of cell growth incubated for 72 hrs by SRB assay; assay type: functional, cell-based; conditions: A549, 72 h

Row | Compound | IC50 [1] | IC50 [2]
1 | C/C=C1\CN(C)[C@H]2Cc3c([nH]c4ccccc34)[C@H](c3c(OC)ccc4c5c([nH]c34)[C@]3(C(=O)OC)C[C@@H]4C[C@H](CC)[C@@H]3N(CC5)[C@@H]4CC(C)=O)C[C@H]1[C@@H]2C(=O)OC | < 10 µM | < 10 µM
2 | C/C=C1/CN(C)[C@H]2Cc3c([nH]c4ccccc34)[C@H](c3ccc4[nH]c5c(c4c3)CCN3C[C@@H]4C[C@H](CC)[C@H]3[C@@H]5C4)C[C@H]1[C@@H]2C(=O)OC | < 10 µM | < 10 µM
3 | CC[C@@H]1CN(C)[C@H]2Cc3c([nH]c4ccccc34)[C@H](c3cc4c5c([nH]c4cc3OC)[C@@]3(C(=O)OC)C[C@H]4C[C@@H](CC)[C@@H]3N(CC5)C4)C[C@H]1[C@@H]2C(=O)OC | < 10 µM | > 10 µM
4 | CC[C@@H]1CN(C)[C@H]2Cc3c([nH]c4ccccc34)[C@H](c3ccc4c5c([nH]c4c3)[C@]3(C(=O)OC)C[C@@H]4C[C@H](CC)[C@@H]3N(CC5)[C@@H]4CCOC)C[C@H]1[C@@H]2C(=O)OC | 2.25 µM | 1.19 µM
5 | CC[C@@H]1CN(C)[C@H]2Cc3c([nH]c4ccccc34)[C@H](c3ccc4c5c([nH]c4c3)[C@]3(C(=O)OC)C[C@@H]4C[C@H](CC)[C@@H]3N(CC5)C4)C[C@@H]1[C@@H]2C(=O)OC | < 10 µM | > 10 µM
6 | C/C=C1/CN(C)[C@H]2Cc3c([nH]c4ccccc34)[C@H](c3ccc4[nH]c5c(c4c3)CCN3[C@H]4[C@@H](CC)C[C@H](C[C@@]54C(=O)OC)[C@@H]3CC(C)=O)C[C@H]1[C@@H]2C(=O)OC | < 10 µM | < 10 µM
7 | C/C=C1\CN(C)[C@H]2Cc3c([nH]c4ccccc34)[C@H](c3cc4[nH]c5c(c4cc3OC)CCN3C[C@H]4C[C@H](CC)[C@H]3[C@H]5C4)C[C@H]1[C@@H]2C(=O)OC | < 10 µM | < 10 µM

Next, values leading:

Row | IC50 [1] | IC50 [2] | Compound
8 | < 10 µM | < 10 µM | CC[C@@H]1CN(C)[C@H]2Cc3c([nH]c4ccccc34)[C@H](c3ccc4c5c([nH]c4c3)[C@@H]3C[C@@H]4C[C@H](CC)[C@@H]3N(CC5)[C@@H]4CC(C)=O)C[C@H]1[C@@H]2C(=O)OC
9 | < 10 µM | < 10 µM | CC[C@@H]1CN(C)[C@H]2Cc3c([nH]c4ccccc34)[C@H](c3cc4[nH]c5c(c4cc3OC)CCN3C[C@H]4C[C@H](CC)[C@H]3[C@@]5(C(=O)OC)C4)C[C@H]1[C@@H]2C(=O)OC
10 | 10.9 µM | 10.9 µM | CC[C@@H]1CN(C)[C@H]2Cc3c([nH]c4ccccc34)[C@H](c3c(OC)ccc4c5c([nH]c34)[C@]3(C(=O)OC)C[C@@H]4C[C@H](CC)[C@@H]3N(CC5)[C@@H]4CC(C)=O)C[C@H]1[C@@H]2C(=O)OC
11 | < 10 µM | < 10 µM | C/C=C1\CN(C)[C@H]2Cc3c([nH]c4ccccc34)[C@H](c3c(OC)ccc4c5c([nH]c34)[C@]3(C(=O)OC)C[C@@H]4C[C@H](CC)[C@@H]3N(CC5)C4)C[C@H]1[C@@H]2C(=O)OC
12 | 10.9 µM | 10.9 µM | CC[C@@H]1CN(C)[C@H]2Cc3c([nH]c4ccccc34)[C@H](c3ccc4[nH]c5c(c4c3)CCN3[C@H](CC(C)=O)[C@@H]4C[C@@H](CC)[C@H]3[C@]5(C(=O)OC)C4)C[C@H]1[C@@H]2C(=O)OC
13 | < 10 µM | < 10 µM | CC[C@@H]1CN(C)[C@H]2Cc3c([nH]c4ccccc34)[C@H](c3ccc4[nH]c5c(c4c3)CCN3C[C@@H]4C[C@@H](CC)[C@H]3[C@@H]5C4)C[C@H]1[C@@H]2C(=O)OC
14 | < 10 µM | > 10 µM | CC[C@@H]1CN(C)[C@H]2Cc3c([nH]c4ccccc34)[C@H](c3cc4[nH]c5c(c4cc3OC)CCN3[C@H](CC(C)=O)[C@H]4C[C@H](CC)[C@H]3[C@@]5(C(=O)OC)C4)C[C@H]1[C@@H]2C(=O)OC
